According to patent US20030032065A1, “Ensemble-based strategy for the design of protein pharmaceuticals” (priority 2001, published 2003):
Ends that are not written are not given here.

Experiments:
streptavidin [1] = biological target: T1, streptavidin (Streptomyces avidinii, UniProt P22629); type: binding; details: peptide-streptavidin complex, association constant
streptavidin [2] = biological target: T1, streptavidin; details: peptide-streptavidin complex, experimentally observed binding constant; cited from earlier work

T1 sequence (P22629 25-183): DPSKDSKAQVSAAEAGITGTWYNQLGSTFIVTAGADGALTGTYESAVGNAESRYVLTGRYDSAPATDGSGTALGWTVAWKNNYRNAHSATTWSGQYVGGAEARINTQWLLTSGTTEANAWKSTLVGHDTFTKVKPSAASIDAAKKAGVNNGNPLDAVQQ

Substance | Observed KA (streptavidin [1]) [µM⁻¹] | Kd (streptavidin [2]) [µM]
FSHPQNT | 0.008 | –
RCCHPQCGMAEEC | 0.45 | 2.3
AECHPQFCIEGRK | 2.13 | 0.47
AECHPQGPPCIEGRK | 4.35 | 0.23
cyclo-CHPQGPPC (also: cyclic, closure type not given here) | 1.49 | 0.67
cyclo-(AHPQFPAE)K (AHPQFPAEK; also: cyclic, ring closure not given here) | 7.69 | 0.13
RCCHPQFEPCMGC | 3.0 | 0.33
cyclo-(AHPQFGAE)K (AHPQFGAEK; also: cyclic, ring closure not given here) | 0.05 | 19
AECHPQFNCIEGRK | 0.14 | 7
RCCHPQCGMVEEC | 3.3 | 1.3
AHPQFPAEK | 0.007 | 136
cyclo-(AQYGHFAE)K (AQYGHFAEK; also: cyclic, ring closure not given here) | 0.0002 | > 5000
AECHPQFPCIEGRK | 1.08 | 0.93
HDHPQNL | 0.004 | 282
AHPQFGAEK | 0.005 | 204
cyclo-CHPQFC | 3.70 | 0.27
